Literature values as cited in patent publication US20130316017A1, “Oral Composition for the Treatment of Acne” (priority 2012, published 2013).

Tests used:
[1] = short-term (0-3 hours)
sebum = conditions: in vivo

Row | Structure (SMILES) | short-term availability of curcumin and any other compound in the composition [1] | reduction of sebum (sebum)
1 | O=C(/C=C/C=C/c1ccc2c(c1)OCO2)N1CCCCC1 [Piperine] | improve | 
2 | CC(C)(CO)[C@@H](O)C(=O)NCCC(=O)O [vitamin B5] |  | reduce sebum
